Values of other authors as cited in publication PMC6150237, “Study of Absorption Characteristics of the Total Saponins from Radix Ilicis Pubescentis in an In Situ Single-Pass Intestinal Perfusion (SPIP) Rat Model by Using Ultra Performance Liquid Chromatography (UPLC)” (Molecules : A Journal of Synthetic Chemistry and Natural …, 2017).

Settings: cited from earlier work

## C[C@@H]1CC[C@]2(C(=O)O)CC[C@]3(C)C(=CC[C@@H]4[C@@]5(C)CC[C@H](O)[C@@](C)(C(=O)O)[C@@H]5CC[C@]43C)[C@@H]2[C@]1(C)O [C1, ilexgenin A]
Calculated based on literature data
  absolute oral bioavailability: low value
Oral administration of C1, 100 mg/kg
  maximum plasma concentration: approximately 350 ng·mL^−1
